Reference: patent US10780057B2, “Casein-based silica dual drug-loading composite microcapsule and preparation method therefor” (SHAANXI UNIVERSITY OF SCIENCE & TECHNOLOGY, priority 2016, dated 2020)

Experiments:
[1] = Drug loading efficiency of casein-based silica dual drug-loaded composite microcapsule; assay type: physicochemical; conditions: casein-based SiO2 dual-loaded microcapsules; drug A ibuprofen on outer wall of capsule, drug B aspirin in core of capsule
Source text: (§1) The samples used in Table 1 were the casein-based SiO2 dual-loaded microcapsules obtained by loading the drug A-buprofen on the outer wall of the capsule and the drug B aspirin in the core of the capsule.

[2] = Cumulative drug release from casein-based silica dual drug-loaded composite microcapsule; assay type: physicochemical; conditions: after 40 h; casein-based SiO2 dual-loaded microcapsules; drug A ibuprofen on outer wall of capsule, drug B aspirin in core of capsule
Source text: as §1

Row | Structure (SMILES) | Drug loading efficiency (%) [1] [%] | 40 h cumulative release rate (%) [2] [%]
1 | CC(C)Cc1ccc(C(C)C(=O)O)cc1 (stereo not shown) [Drug A: ibuprofen, ibuprofen] | 69 | 88
2 | CC(=O)Oc1ccccc1C(=O)O [Drug B: aspirin, aspirin] | 86 | 60
